Experimental data reported in patent US9457084B2, “Use of EP4 receptor antagonists in the treatment of IL-23 mediated diseases” (RAQUALIA PHARMA INC., priority 2010, dated 2016).
Entries after “also recorded” stand apart in the source; their conditions may differ.

Legend:
[1] = test system: mouse CD11c (+) cells; assay: IL-23 production in CD11c dendritic cells (ELISA); format: cell-based; conditions: 10, 100, or 1000 nM; antibody to CD40, 36 hours; supernatant ELISA
Description: CD11c dendritic cells (DCs) from the spleens of C57BL/6 mice were purified by auto-magnetic activated cell sorting. The DCs were cultured in a 96-well plate at a density of 6×10^5 cells per well in the presence of 10 microgram/mL antibody to CD40 for 36 hours. Compounds listed in FIG. 1, that is, Compound A (3-[2-(4-{2-ethyl-4,6-dimethyl-1H-imidazo[4,5-c]pyridin-1-yl}phenyl)ethyl]-1-[(4-methylbenzene)sulfonyl]urea) and Compound B (4-[(1S)-1-({[5-chloro-2-(3-fluorophenoxy)pyridin-3-yl]carbonyl}amino)ethyl]benzoic acid) were added at the beginning of incubation at a dose of 10, 100, or 1000 nM. The supernatant collected at the end of culture was measured by ELISA for IL-23.

[2] = test system: Balb/c male mice; assay: DSS model (DSS-induced colitis); format: in vivo, mouse; conditions: 2.5% DSS for 7 days; 3 or 30 mg/kg orally for 7 days; evaluated day 11
Description: Eight weeks-old Balb/c male mice were used in the study. Mice were allocated to four groups; normal control group, disease control group receiving vehicle, and two disease groups receiving different dose of Compound B. Colitis was induced by drinking 2.5% DSS (average molecular weight of 5,000) dissolved in water for 7 days. Compound B in 0.5% methyl cellulose solution (at a dose of 3 or 30 mg/kg) was orally administered for 7 days. The mice were sacrificed on day 11 and the colon was harvested for the evaluation. Colon length, colon weight, and histology score were analyzed. Histology score was determined as follows; 0=no signs of damage; 1=moderate inflammation; 2=severe inflammation.

[3] = test system: C57BL/6 male mice; assay: Allergic contact dermatitis and psoriasis model (picryl chloride, ear swelling); format: in vivo, mouse
Description: Eight weeks-old C57BL/6 male mice were used in the study. Mice were sensitized with 0.1 mL of 7% picryl chloride-ethanol on shaved abdominal skin on day O, Seven days later, the mice were treated with 0.02 mL of 1% picryl chloride-olive oil on both sides of the ear by painting. Ear thickness was measured using a thickness gage before the treatment, and 24 and 48 hours after the treatment, and the difference of ear thickness was used as a parameter of ear swelling. Compound B suspended in 0.5% methyl cellulose solution (at a dose of 3 or 30 mg/kg) was administered orally either during the entire experimental period (days 0 to 11) or elicitation (E) period (days 8 to 10).

[4] = test system: mice; conditions: animal models; NPL 19 / NPL 21; cited from earlier work
[5] = test system: mice; conditions: cited from earlier work
[6] = test system: rat; conditions: cited from earlier work
[7] = NPL 26; cited from earlier work
[8] = NPL 27; cited from earlier work

| SMILES | colitis score [2] | colon weight/length [2] | ear swelling ([3]; treatment period not stated) | also measured |
| --- | --- | --- | --- | --- |
| CCc1nc2c(C)nc(C)cc2n1-c1ccc(CCNC(=O)NS(=O)(=O)c2ccc(C)cc2)cc1 [Compound A, 3-[2-(4-{2-ethyl-4,6-dimethyl-1H-imidazo[4,5-c]pyridin-1-yl}phenyl)ethyl]-1-[(4-methylbenzene)sulfonyl]urea] | Dose-dependent reduction | Dose-dependent reduction | dose-dependent reduction | inhibition of IL-23 production [1]: dose-dependent inhibition |
| CC(C(=O)Nc1cc(C#N)ccc1CCCC(=O)O)c1ccc(F)c2ccccc12 (centres unmarked) [AE3-208] | – | – | – | effect on MS [4]: treat MS; also recorded: ameliorate; effect on allergic contact dermatitis ([5]; animal models, NPL 19): ameliorate; efficacy on the development (sensitization) of allergic contact dermatitis ([5]; prophylactic (sensitization), NPL 25): potent inhibitory efficacy; efficacy by therapeutic treatment in allergic contact dermatitis ([5]; therapeutic treatment, NPL 25): failed to show the efficacy; effect on DSS-induced colitis [6]: aggravated |
| Cc1sc(C)c(C(=O)NC2(c3ccc(C(=O)O)cc3)CC2)c1Cc1ccc(C(F)(F)F)cc1 [Compound E, 4-{1-[({2,5-dimethyl-4-[4-(trifluoromethyl)benzyl]-3-thienyl}carbonyl)amino]cyclopropyl}benzoic acid] | Dose-dependent reduction | Dose-dependent reduction | dose-dependent reduction | – |
| C[C@H](NC(=O)c1cc(Cl)cnc1Oc1cccc(F)c1)c1ccc(C(=O)O)cc1 [Compound B, 4-[(1S)-1-({[5-chloro-2-(3-fluorophenoxy)pyridin-3-yl]carbonyl}amino)ethyl]benzoic acid] | restored | restored | – | inhibition of IL-23 production [1]: dose-dependent inhibition; ear swelling ([3]; 3 or 30 mg/kg orally during elicitation (E) period (days 8 to 10)): significantly reduced; ear swelling ([3]; 3 or 30 mg/kg orally during entire experimental period (days 0 to 11)): significantly reduced; maximum efficacy on ear swelling compared with prednisolone (Pred) ([3]; mouse, in vivo): equal to that of prednisolone |
| C[C@H](NC(=O)c1cc(Cl)cnc1COc1cccc(Cl)c1)c1ccc(C(=O)O)cc1 [Compound C, 4-{(1S)-1-[({5-chloro-2-[(3-chlorophenoxy)methyl]pyridin-3-yl}carbonyl)amino]ethyl}benzoic acid] | Dose-dependent reduction | Dose-dependent reduction | dose-dependent reduction | – |
| COc1ccc(-c2ccc(OCc3cc(C(=O)NS(=O)(=O)c4ccccc4C)oc3C)cc2)nc1 [Compound D, 4-((4-(5-methoxypyridin-2-yl)phenoxy)methyl)-5-methyl-N-(o-tolylsulfonyl)furan-2-carboxamide] | Dose-dependent reduction | Dose-dependent reduction | dose-dependent reduction | – |
| COc1ccc2c(c1)c(CC(=O)O)c(C)n2C(=O)c1ccc(Cl)cc1 [indomethacin] | – | – | – | effect on DSS-induced colitis [7]: aggravated; effect on allergic contact dermatitis [8]: worse |
